Reference: patent publication US7312196B2, “Formulations for amylin agonist peptides” (Amylin Pharmaceuticals, Inc., priority 1998, dated 2007)

Legend:
Type in all cases: physicochemical
[1] = pH-rate profile: stability of the peptide at pH 4.0-5.5, 45° C.; settings: 60 mM acetate buffer, 4.1% mannitol, 0.3% m-cresol
Protocol: This example describes two preferred liquid formulations for pramlintide. Major degradation pathways for the peptide are […] and peptide bond hydrolysis. Therefore, the stability of the peptide was investigated in the pH region of 4.0-5.5 at 45° C. […] The following formulation was developed: […]

[2] = adsorption onto glass container in liquid form
Text: However, with regard to amylin agonists or amylins which do have such a tendency when in liquid form, a surfactant should be used in their formulation. These formulations may then be lyophilized. Surfactants frequently cause denaturation of protein, both of hydrophobic disruption and by salt bridge separation. Relatively low concentrations of surfactant may exert a potent denaturing activity, because of the strong interactions between surfactant moieties and the reactive sites on proteins. However, judicious use of this interaction can stabilize proteins against interfacial or surface denaturation. Surfactants which could further stabilize the peptide may optionally be present in the range of about 0.001 to 0.3% (w/v) of the total formulation and include polysorbate 80 (i.e., polyoxyethylene(20) sorbitan monooleate), CHAPS® (i.e., 3-[(3-cholamidopropyl) dimethylammonio] 1-propanesulfonate), Brij® (e.g., Brij 35, which is (polyoxyethylene (23) lauryl ether), poloxamer, or another non-ionic surfactant.

[3] = short term mixing compatibility with insulin in the same syringe; settings: depending on type of insulin and volume ratio
Text: The formulations reported in Tables A and B are also compatible when mixed in a syringe with commercially available insulin products. […] As outlined by Brange et al, “Insulin Structure and Stability,” in Stability and Characterization of Protein and Peptide Drugs: Case Histories, 1993, Wang et al. (Ed), Plenum Press, NY, insulin has an isoelectric precipitation zone pH range of 4.5-6.5, within 1 pH unit from isoelectric point. Therefore, while not seeking to be bound by theory, if the pH of the insulin product drops from 7.2±0.2 to pH in the isoelectric precipitation range it may cause insulin to precipitate. Thus, clarity of the solution mixture was used as a criteria for preliminary compatibility studies. The insulin volumes used in this study (Table C) cover the maximum and minimum ranges typical for Type I diabetic patients. The formulation with higher buffer capacity (Table C) forms a clear solution faster than the lower buffer capacity formulation. However, at 0.01% of the peptide label strength both formulations form a clear solution with insulin within approximately one minute. In a syringe, one minute can be considered to be instantaneous mixing. The higher label strength of the peptide (0.015% or higher) results in lower dose volume and may require longer than a minute to form a clear solution. […]

stability of the peptide over the pH range studied [1]: most stable at pH 4.0
time insulin and peptide formulation can remain in the same syringe retaining activity and stability [3]: at least 24 hours
SMILES: CC[C@H](C)[C@H](NC(=O)[C@@H]1CCCN1C(=O)CNC(=O)[C@H](Cc1ccccc1)NC(=O)[C@H](CC(N)=O)NC(=O)[C@H](CC(N)=O)NC(=O)[C@H](CO)NC(=O)[C@H](CO)NC(=O)[C@H](Cc1c[nH]cn1)NC(=O)[C@@H](NC(=O)[C@H](CC(C)C)NC(=O)[C@H](Cc1ccccc1)NC(=O)[C@H](CC(N)=O)NC(=O)[C@H](C)NC(=O)[C@H](CC(C)C)NC(=O)[C@H](CCCNC(=N)N)NC(=O)[C@H](CCC(N)=O)NC(=O)[C@@H](NC(=O)[C@H](C)NC(=O)[C@@H]1CSSC[C@H](NC(=O)[C@@H](N)CCCCN)C(=O)N[C@@H](CC(N)=O)C(=O)N[C@@H]([C@@H](C)O)C(=O)N[C@@H](C)C(=O)N[C@@H]([C@@H](C)O)C(=O)N1)[C@@H](C)O)C(C)C)C(=O)N[C@@H](CC(C)C)C(=O)N1CCC[C@H]1C(=O)N1CCC[C@H]1C(=O)N[C@H](C(=O)N[C@@H](CC(N)=O)C(=O)N[C@H](C(=O)NCC(=O)N[C@@H](CO)C(=O)N[C@@H](CC(N)=O)C(=O)N[C@H](C(=O)N[C@@H](Cc1ccc(O)cc1)C(N)=O)[C@@H](C)O)C(C)C)[C@@H](C)O [pramlintide, ^25,28,29Pro-h-amylin]
tendency to adsorb onto glass [2]: does not have a tendency to adsorb onto the glass
